{"source": "patent US4531001A", "about": "“2-β-D-ribofuranosylselenazole-4-carboxamide compounds” (priority 1983, dated 1985)", "key": {"Lewis lung carcinoma [1]": {"tested_on": "Lewis lung carcinoma", "assay": "Antitumor activity against Lewis lung carcinoma, Example 13 (Table II)", "assay_type": "in vivo, B6 D2 F1 female mice", "conditions": "for Treated Group Survival Time: median, control 16.9", "protocol": "(§1) As illustrative examples of the antitumor use of COMPOUNDS 1 and 2, Examples 12 through 14, below, are given. […] The tests utilized in these illustrative examples were conducted by the Developmental Therapeutics Program, Division of Cancer Treatment, National Cancer Institute. The tests were supervised by this agency utilizing their standard protocols and procedures. All tests conformed to these protocols and all tests were evaluated under the criteria defined by these protocols. The following representative examples illustrate confirmed activity of the illustrative compounds of the invention against screening tumor systems of the National Cancer Institute.\n(§2) For purposes of the following examples, the abbreviation IP stands for intraperitoneal and IV stands for intravenous. The mean and median survival times are calculated in instruction 14 (revised 6/78) of the Screening Data Summary, Developmental Therapeutics Program, Division of Cancer Treatment, National Cancer Institute. The contents of this Screening Data Summary including appropriate revisions are herein incorporated by reference.\n(§3) In the illustrated examples below, the vehicle used as carrier for the drug was injected (minus any drug therein) into the control animals at the same level of use of the vehicle in the drug treated animals in order to eliminate any vehicle effect of the tests.\nIn this example COMPOUND 1 was tested in B6 D2 F1 female mice challenged with Lewis lung carcinoma. The median survival time of the test animals was compared to that of appropriate control animals."}, "Lewis lung carcinoma [2]": {"tested_on": "Lewis lung carcinoma", "assay": "Lewis lung in vivo mouse model, low doses, Example 13 (Table III)", "parameters": "species or system B6 D2 F1 female mice", "conditions": "for Treated Group Survival Time: control 20.2", "protocol": "as §1, §2, §3\nCOMPOUND 1 was further tested in a Lewis lung in vivo mouse model using B6 D2 F1 female mice challenged with Lewis lung carcinoma."}, "L-1210": {"tested_on": "L-1210", "assay": "Growth inhibition in suspension cell culture, L-1210", "assay_type": "cell-based", "conditions": "Mus musculus, L1210, 72 hours, cell count 50 percent of untreated control, read-out: ID50 (the source's name)", "protocol": "(§4) In further tests, growth-inhibitory effects of COMPOUND 1 and COMPOUND 2 were measured against 3 mouse tumor lines in suspension cell culture. Cell cultures were initiated at a density of 50,000 cells/ml in medium RPMI 1630 supplemented with 10 percent fetal calf serum. Composition of this culture medium and details of the culture procedure followed the published method (G. E. Moore, A. A. Sandberg and K. Ulrich, Suspension Cell Culture and in vivo and in-vitro chromosome constitution of mouse leukemia L1210, Journal of the National Cancer Institute 36, 405-415, 1966). Cultures were maintained at 37 degrees in stationary suspension culture under a 95 percent air+5 percent CO2 atmosphere. Test compounds were added to treated cultures at the time of initiation, and were present continually. After 72 hours, 40-fold dilutions of drug-treated and untreated control cultures were prepared in 0.9 percent NACl solution, and cells were counted on an electronic particle counter. The growth-inhibitory effects are expressed as ID50 values, namely, test compound inhibitory dosages or concentrations required to decrease cell count in treated cultures to 50 percent of the cell count of untreated control cultures."}, "P388": {"tested_on": "P388", "assay": "Growth inhibition in suspension cell culture, P388", "assay_type": "cell-based", "conditions": "Mus musculus, 72 hours, cell count 50 percent of untreated control, read-out: ID50 (the source's name)", "protocol": "as §4"}, "B16 Melanoma": {"tested_on": "B16 Melanoma", "assay": "Growth inhibition in suspension cell culture, B16 Melanoma", "assay_type": "cell-based", "conditions": "Mus musculus, 72 hours, cell count 50 percent of untreated control, read-out: ID50 (the source's name)", "protocol": "as §4"}, "VSV": {"tested_on": "VSV", "assay": "microbe, parasite or virus in culture", "assay_type": "cell-based", "conditions": "for Virus Rating: >1.0 definite, 0.5-0.9 moderate, <0.5 slight or no activity; for EC50: Vesicular stomatitis virus, read-out: ED50"}, "3 mouse tumor lines": {"tested_on": "3 mouse tumor lines", "assay": "Growth inhibition in suspension cell culture, representative tumor lines", "assay_type": "cell-based", "conditions": "representative tumor lines in cell culture", "protocol": "as §4"}, "Hela cells": {"tested_on": "Hela cells", "assay": "Toxicity to Hela cells", "conditions": "1000 ug/ml (highest concentration tested)"}, "[3]": {"assay": "Solubility in aqueous media"}, "cell culture": {"tested_on": "cell culture", "assay": "Cytotoxicity in cell culture"}, "[4]": {"conditions": "12 mg/kg (12.50 mg/kg in source)"}}, "note": "Several values for one entry are separate records, joined by “and”; a condition that tells them apart may be missing. Identical values can stand only once. Like-named read-outs stand apart in the source and are kept apart here.", "data": [{"compound": "NC(=O)c1c[se]c([C@@H]2O[C@H](CO)[C@@H](O)[C@H]2O)n1", "note": "[COMPOUND 1, 2-β-D-ribofuranosylselenazole-4-carboxamide]", "values": [{"measurement": "Cures", "setting": "Lewis lung carcinoma [1]; [4]", "value": "8 out of 10 and 8/10"}, {"measurement": "Percent Treated Animals/Control Animals (T/C)", "setting": "Lewis lung carcinoma [1]; [4]", "value": 355, "unit": "%"}, {"measurement": "Treated Group Survival Time", "setting": "Lewis lung carcinoma [1]; [4]", "value": 60.0}, {"measurement": "Cures", "setting": "Lewis lung carcinoma [1]; 25 mg/kg", "value": "7 out of 10 and 7/10"}, {"measurement": "Percent Treated Animals/Control Animals (T/C)", "setting": "Lewis lung carcinoma [1]; 25 mg/kg", "value": 355, "unit": "%"}, {"measurement": "Treated Group Survival Time", "setting": "Lewis lung carcinoma [1]; 25 mg/kg", "value": 60.0}, {"measurement": "Cures", "setting": "Lewis lung carcinoma [1]; 50 mg/kg", "value": "6 out of 10 and 6/10"}, {"measurement": "Percent Treated Animals/Control Animals (T/C)", "setting": "Lewis lung carcinoma [1]; 50 mg/kg", "value": 355, "unit": "%"}, {"measurement": "Treated Group Survival Time", "setting": "Lewis lung carcinoma [1]; 50 mg/kg", "value": 60.0}, {"measurement": "Cures", "setting": "Lewis lung carcinoma [1]; 100 mg/kg", "value": "3/10"}, {"measurement": "Percent Treated Animals/Control Animals (T/C)", "setting": "Lewis lung carcinoma [1]; 100 mg/kg", "value": 120, "unit": "%"}, {"measurement": "Treated Group Survival Time", "setting": "Lewis lung carcinoma [1]; 100 mg/kg", "value": 20.3}, {"measurement": "Cures", "setting": "Lewis lung carcinoma [1]; 200 mg/kg", "value": "0/10"}, {"measurement": "Treated Group Survival Time", "setting": "Lewis lung carcinoma [1]; 200 mg/kg", "value": 10.7}, {"measurement": "survival of test animals in words", "setting": "Lewis lung carcinoma [1]; 50, 25 and 12.50 mg/kg", "value": "all of the test animals survived"}, {"measurement": "antitumor activity in words", "setting": "Lewis lung carcinoma [1]; median survival time versus control", "value": "effective antitumor agent"}, {"measurement": "Cures", "setting": "Lewis lung carcinoma [2]; 0.75 mg/kg", "value": "0/10"}, {"measurement": "Percent Treated Animals/Control Animals (T/C)", "setting": "Lewis lung carcinoma [2]; 0.75 mg/kg", "value": 107, "unit": "%"}, {"measurement": "Treated Group Survival Time", "setting": "Lewis lung carcinoma [2]; 0.75 mg/kg", "value": 21.7}, {"measurement": "Cures", "setting": "Lewis lung carcinoma [2]; 1.50 mg/kg", "value": "0/10"}, {"measurement": "Percent Treated Animals/Control Animals (T/C)", "setting": "Lewis lung carcinoma [2]; 1.50 mg/kg", "value": 110, "unit": "%"}, {"measurement": "Treated Group Survival Time", "setting": "Lewis lung carcinoma [2]; 1.50 mg/kg", "value": 22.3}, {"measurement": "Cures", "setting": "Lewis lung carcinoma [2]; 3.00 mg/kg", "value": "0/10"}, {"measurement": "Percent Treated Animals/Control Animals (T/C)", "setting": "Lewis lung carcinoma [2]; 3.00 mg/kg", "value": 153, "unit": "%"}, {"measurement": "Treated Group Survival Time", "setting": "Lewis lung carcinoma [2]; 3.00 mg/kg", "value": 31.0}, {"measurement": "DN2 level activity", "setting": "Lewis lung carcinoma [2]; 3 mg/kg, percent T/C greater than 150", "value": "achieved DN2 level activity"}, {"measurement": "Cures", "setting": "Lewis lung carcinoma [2]; 6.00 mg/kg", "value": "5 out of 10 and 5/10"}, {"measurement": "Percent Treated Animals/Control Animals (T/C)", "setting": "Lewis lung carcinoma [2]; 6.00 mg/kg", "value": 297, "unit": "%"}, {"measurement": "Treated Group Survival Time", "setting": "Lewis lung carcinoma [2]; 6.00 mg/kg", "value": 60.0}, {"measurement": "Cures", "setting": "Lewis lung carcinoma [2]; 12.00 mg/kg", "value": "9/10"}, {"measurement": "Percent Treated Animals/Control Animals (T/C)", "setting": "Lewis lung carcinoma [2]; 12.00 mg/kg", "value": 297, "unit": "%"}, {"measurement": "Treated Group Survival Time", "setting": "Lewis lung carcinoma [2]; 12.00 mg/kg", "value": 60.0}, {"measurement": "Cures", "setting": "Lewis lung carcinoma [2]; 24.00 mg/kg", "value": "9 out of 10 and 9/10"}, {"measurement": "Percent Treated Animals/Control Animals (T/C)", "setting": "Lewis lung carcinoma [2]; 24.00 mg/kg", "value": 297, "unit": "%"}, {"measurement": "Treated Group Survival Time", "setting": "Lewis lung carcinoma [2]; 24.00 mg/kg", "value": 60.0}, {"measurement": "antitumor activity in words", "setting": "Lewis lung carcinoma [2]; mouse, in vivo", "value": "effective antitumor agent"}, {"measurement": "IC50", "setting": "L-1210", "value": 400, "unit": "nM"}, {"measurement": "IC50", "setting": "P388", "value": 270, "unit": "nM"}, {"measurement": "IC50", "setting": "B16 Melanoma", "value": 3500, "unit": "nM"}, {"measurement": "antiviral activity in words", "setting": "VSV; HeLa cells, Rhabdoviridae (VSV)", "value": "Excellent antiviral activity"}, {"measurement": "Virus Rating", "setting": "VSV; HeLa", "value": 2.1}, {"measurement": "Virus Rating", "setting": "VSV; Vero", "value": 0.4}, {"measurement": "EC50", "setting": "VSV; HeLa", "value": 9, "unit": "µg/mL"}, {"measurement": "EC50", "setting": "VSV; Vero", "value": 1000, "unit": "µg/mL"}, {"measurement": "growth inhibition in words", "setting": "3 mouse tumor lines", "value": "inhibit growth in cell culture for representative tumor lines at extremely low dosage"}, {"measurement": "toxicity to cells", "setting": "Hela cells", "value": "non-toxic"}, {"measurement": "solubility in aqueous media", "setting": "[3]", "value": "soluble in aqueous media"}, {"measurement": "cytotoxicity in words", "setting": "cell culture", "value": "low cytotoxicity"}]}]}
